According to patent publication US20130040933A1, “AZAINDOLES AS JANUS KINASE INHIBITORS” (priority 2010, published 2013):

What follows are compounds tested against T1, rhJAK3 (Homo sapiens, UniProt P52333) (assay: JAK Biochemical HTRF Assay (JAK3)). Details: recombinant purified GST-tagged catalytic domain, HTRF format, [ATP] 1.7 μM; read-out: rhJAK3 IC50.
T1 construct: recombinant purified GST-tagged catalytic domain for each enzyme; purchased Invitrogen PV3855
Method: JAK Biochemical HTRF Assay Protocol
The ability of compounds to inhibit the activity of JAK1, JAK2, JAK3, and TYK2 was measured using a recombinant purified GST-tagged catalytic domain for each enzyme (Invitrogen JAK1 #PV4774, JAK2 #PV4210, JAK3 #PV3855, TYK2 #PV4790) in an HTRF format biochemical assay. The reactions employed a common peptide substrate, LCB-EQEDEPEGDYFEWLW-NH2. The basic assay protocol is as follows: First, […] of diluted compounds in DMSO were dispensed into the wells of a dry 384-well Black plate (Greiner #781076) using a Labcyte Echo 555 acoustic dispenser. Subsequent reagent additions employed a Thermo Multidrop Combi nL. Next, 10 μL of 2× enzyme and 2× substrate in 1× assay buffer (Invitrogen kinase buffer #PV3189, 2 mM DTT, 0.05% BSA) were added to the wells and preincubated for 30 min at room temperature to allow compound binding to equilibrate. After equilibration, 10 μl, of 2×ATP in 1× assay buffer was added to initiate the kinase reaction and the plates were incubated at room temperature for 120 min. At the end of the incubation, 20 μL of 2× stop buffer containing streptavidin-Dylight (Thermo #21845) and Eu-tagged pY20 antibody (Perkin Elmer #AD0067) was added to quench the reaction. Plates were further incubated 60 min at room temperature with shaking and then read on a Perkin Elmer Envision (λex=337 nm, λem=665 and 615 nm, TRF delay time=20 μs). HTRF signal=10,000*665 nm reading/615 nm reading. After normalization to untreated controls, the percent inhibition of the HTRF signal at each compound concentration was calculated. The plot of percent inhibition vs. the log of compound concentration was fit with a 4-parameter dose response equation to calculate IC50 values.

T1 sequence (P52333 822-1111 limits assumed): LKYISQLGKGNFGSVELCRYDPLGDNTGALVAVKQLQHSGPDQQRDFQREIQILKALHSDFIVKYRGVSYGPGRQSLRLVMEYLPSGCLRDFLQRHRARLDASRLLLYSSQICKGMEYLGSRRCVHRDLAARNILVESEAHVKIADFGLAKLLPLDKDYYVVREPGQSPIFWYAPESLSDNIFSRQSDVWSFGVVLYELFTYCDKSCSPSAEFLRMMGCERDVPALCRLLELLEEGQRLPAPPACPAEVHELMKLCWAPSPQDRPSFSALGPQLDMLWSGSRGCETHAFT

IC50 [nM] | SMILES
≤ 1 | CC(C)[C@@H](Nc1cncc(-c2c[nH]c3ncc(C(N)=O)cc23)n1)C(=O)NCC(F)(F)F [16 Step 8]
≤ 1 | C[C@@H](Nc1cncc(-c2c[nH]c3ncc(Cl)cc23)n1)C(=O)NCC(F)(F)F [Example 1, N^2-[6-(5-Chloro-1H-pyrrolo[2,3-b]pyridin-3-yl)pyrazin-2-yl]-N-(2,2,2-trifluoroethyl)-D-alaninamide]
1 to 10 | O=C(NCC(F)(F)F)[C@@H]1CC[C@@H](Nc2cncc(-c3c[nH]c4ncc(Cl)cc34)n2)C1 [Example 1-1, (1R,3R)-3-{[6-(5-chloro-1H-pyrrolo[2,3-b]pyridin-3-yl)-pyrazin-2-yl]amino}-N-(2,2,2-trifluoroethyl)cyclopentane-carboxamide]
1 to 10 | O=C(NCC(F)(F)F)[C@H]1CC[C@@H](Nc2cncc(-c3c[nH]c4ncc(Cl)cc34)n2)C1 [Example 1-2, (1S,3R)-3-{[6-(5-chloro-1H-pyrrolo[2,3-b]pyridin-3-yl)-pyrazin-2-yl]amino}-N-(2,2,2-trifluoroethyl)cyclopentane-carboxamide]
1 to 10 | O=C(NCC(F)(F)F)[C@@H]1CC[C@H](Nc2cncc(-c3c[nH]c4ncc(Cl)cc34)n2)C1 [Example 1-3, (1R,3S)-3-{(6-(5-chloro-1H-pyrrolo[2,3-b]pyridin-3-yl)-pyrazin-2-yl]amino}-N-(2,2,2-trifluoroethyl)cyclopentane-carboxamide]
10 to 100 | O=C(NCC(F)(F)F)[C@H]1CC[C@H](Nc2cncc(-c3c[nH]c4ncc(Cl)cc34)n2)C1 [Example 1-4, (1S,3S)-3-{[6-(5-chloro-1H-pyrrolo[2,3-b]pyridin-3-yl)-pyrazin-2-yl]amino}-N-(2,2,2-trifluoroethyl)cyclopentane-carboxamide]
1 to 10 | O=C(NCC(F)(F)F)[C@@H]1CCCN1c1cncc(-c2c[nH]c3ncc(Cl)cc23)n1 [Example 1-5, 1-[6-(5-chloro-1H-pyrrolo[2,3-b]pyridin-3-yl)-pyrazin-2-yl]-N-(2,2,2-trifluoroethyl)-L-prolinamide]
≤ 1 | O=C(NCC(F)(F)F)[C@H]1CCCN1c1cncc(-c2c[nH]c3ncc(Cl)cc23)n1 [Example 1-6, 1-[6-(5-chloro-1H-pyrrolo[2,3-b]pyridin-3-yl)pyrazin-2-yl]-N-(2,2,2-trifluoroethyl)-D-prolinamide]
1 to 10 | CCNC(=O)[C@H]1CCCN1c1cncc(-c2c[nH]c3ncc(Cl)cc23)n1 [Example 1-7, 1-[6-(5-chloro-1H-pyrrolo[2,3-b]pyridin-3-yl)pyrazin-2-yl]-N-ethyl-D-prolinamide]
1 to 10 | O=C(NCC(F)(F)F)[C@@H]1CC(F)(F)CN1c1cncc(-c2c[nH]c3ncc(Cl)cc23)n1 [Example 1-8, 1-[6-(5-chloro-1H-pyrrolo[2,3-b]pyridin-3-yl)pyrazin-2-yl]-4,4-difluoro-N-(2,2,2-trifluoroethyl)-L-prolinamide]
≤ 1 | CC1(C(=O)NCC(F)(F)F)CCN1c1cncc(-c2c[nH]c3ncc(Cl)cc23)n1 (stereo not drawn) [Example 1-9, 1-[6-(5-chloro-1H-pyrrolo[2,3-b]pyridin-3-yl)pyrazin-2-yl]-2-methyl-N-(2,2,2-trifluoroethyl)azetidine-2-carboxamide]
1 to 10 | C[C@@]1(C(=O)NCC(F)(F)F)CCN1c1cncc(-c2c[nH]c3ncc(Cl)cc23)n1 [Example 1-10, (2S)-1-[6-(5-chloro-1H-pyrrolo[2,3-b]pyridin-3-yl)pyrazin-2-yl]-2-methyl-N-(2,2,2-trifluoroethyl)azetidine-2-carboxamide]
≤ 1 | C[C@]1(C(=O)NCC(F)(F)F)CCN1c1cncc(-c2c[nH]c3ncc(Cl)cc23)n1 [Example 1-11, (2R)-1-[6-(5-chloro-1H-pyrrolo[2,3-b]pyridin-3-yl)pyrazin-2-yl]-2-methyl-N-(2,2,2-trifluoroethyl)azetidine-2-carboxamide]
≤ 1 | CC(C)[C@@H](Nc1cncc(-c2c[nH]c3ncc(Cl)cc23)n1)C(=O)NCC(F)(F)F [Example 1-12, N^2-[6-(5-chloro-1H-pyrrolo[2,3-b]pyridin-3-yl)pyrazin-2-yl]-N-(2,2,2-trifluoroethyl)-D-valinamide]
1 to 10 | CC(C)(C)OC(=O)N1CCN(c2cncc(-c3c[nH]c4ncc(Cl)cc34)n2)[C@@H](C(=O)NCC(F)(F)F)C1 [Example 1-13, tert-butyl (3R)-4-[6-(5-chloro-1H-pyrrolo[2,3-b]pyridin-3-yl)pyrazin-2-yl]-3-[(2,2,2-trifluoroethyl)carbamoyl]-piperazine-1-carboxylate]
≤ 1 | CC(C)(Nc1cncc(-c2c[nH]c3ncc(Cl)cc23)n1)C(=O)NCC(F)(F)F [Example 1-14, N^2-[6-(5-chloro-1H-pyrrolo[2,3-b]pyridin-3-yl)pyrazin-2-yl]-2-methyl-N-(2,2,2-trifluoroethyl)alaninamide]
10 to 100 | O=C(NCC(F)(F)F)C1CN(c2cncc(-c3c[nH]c4ncc(Cl)cc34)n2)C1 [Example 1-15, 1-[6-(5-chloro-1H-pyrrolo[2,3-b]pyridin-3-yl)pyrazin-2-yl]-N-(2,2,2-trifluoroethyl)azetidine-3-carboxamide]
10 to 100 | COC(=O)c1ncc(N[C@@H](C)C(=O)NCC(F)(F)F)nc1-c1c[nH]c2ncc(Cl)cc12 [Example 1-16, methyl 3-(5-chloro-1H-pyrrolo[2,3-b]pyridin-3-yl)-5-({(1S)-1-methyl-2-oxo-2-[(2,2,2-trifluoroethyl)amino]ethyl}amino)-pyrazine-2-carboxylate]
≤ 1 | C[C@H](Nc1cncc(-c2c[nH]c3ncc(Cl)cc23)n1)C(=O)NCC(F)(F)F [Example 2, N^2-[6-(5-Chloro-1H-pyrrolo[2,3-b]pyridin-3-yl)pyrazin-2-yl]-N-(2,2,2-trifluoroethyl)-L-alaninamide]
10 to 100 | C[C@H](Nc1cncc(-c2c[nH]c3ncc(Cl)cc23)n1)C(=O)NCC#N [Example 2-1, N^2-[6-(5-chloro-1H-pyrrolo[2,3-b]-pyridin-3-yl)pyrazin-2-yl]-N-(cyanomethyl)-L-alaninamide]
100 to 1000 | C[C@H](Nc1cncc(-c2c[nH]c3ncc(Cl)cc23)n1)C(=O)N1CCOCC1 [Example 2-2, 6-(5-chloro-1H-pyrrolo[2,3-b]-pyridin-3-yl)-N-[(1S)-1-methyl-2-morpholin-4-yl-2-oxoethyl]pyrazin-2-amine]
10 to 100 | C[C@H](Nc1cncc(-c2c[nH]c3ncc(Cl)cc23)n1)C(=O)N1CCC(F)(F)C1 [Example 2-3, 6-(5-chloro-1H-pyrrolo[2,3-b]-pyridin-3-yl)-N-[(1S)-2-(3,3-difluoropyrrolidin-1-yl)-1-methyl-2-oxoethyl]pyrazin-2-amine]
100 to 1000 | C[C@H](Nc1cncc(-c2c[nH]c3ncc(Cl)cc23)n1)C(=O)N1CC(F)(F)C(F)(F)C1 [Example 2-4, 6-(5-chloro-1H-pyrrolo[2,3-b]-pyridin-3-yl)-N-[(1S)-1-methyl-2-oxo-2-(3,3,4,4-tetrafluoro-pyrrolidin-1-yl)ethyl]pyrazin-2-amine]
100 to 1000 | C[C@@H](Nc1cncc(-c2c[nH]c3ncc(Cl)cc23)n1)C(=O)NCc1cccnc1Cl [Example 2-5, N-[(2-chloropyridin-3-yl)methyl]-N^2-[6-(5-chloro-1H-pyrrolo[2,3-b]-pyridin-3-yl)pyrazin-2-yl]-D-alaninamide]
